# According to paper PMC7413516, “Antidepressant-like activity and safety profile evaluation of 1H-imidazo[2,1-f]purine-2,4(3H,8H)-dione derivatives as 5-HT1A receptor partial agonists” (PLoS ONE, 2020):
# Key:
# [1] = biological target: serotonergic 5-HT1A receptor (5-HT1AR); parameters: method as in PMID 27353547; settings: ref [8]; cited from earlier work
# [2] = Liver, kidney and heart weight after repeated administration; type: in vivo, Swiss albino mice; settings: mice, AZ-853 0.625 mg/kg, AZ-861 1.25 mg/kg
# Method: (§1) The Swiss albino mice were used in the experiment. AZ-853 and AZ-861 were injected once daily for 16 consecutive days. On the 1st and 15th day the administration of the compounds, 18-h spontaneous animal activity was registered (see below). FST, as described earlier, was performed on the 14th day just before the next treatment. To ensure that the effects observed in FST are not the result of increased motility of animals, on the 13th day, just before the next administration, the locomotor activity was measured as described earlier, from 2 to 6 min after test start, i.e. in the period identical to the duration of FST. Blood and organ collection was performed on the 17th day at 24 h after the last dose and fasting.
# The body weight was measured daily immediately prior to administration of the drugs. On the 17th day, the blood was collected from the Swiss albino mice sacrificed by decapitation 20 min after i.p. administration of heparin (2500 units/mouse) and then centrifuged at 600 × g (15 min, 4°C) to separate plasma. The liver, heart, and kidney were also collected and weighed.
# mice [3] = assay: Forced swim test (FST) in mice; type: in vivo, Swiss albino mice
# Excerpt: The investigated compounds AZ-853 (8-(4-(4-(2-fluorophenyl)piperazin-1-yl)butyl)-1,3-dimethyl-1H-imidazo[2,1-f]purine-2,4(3H,8H)-dione and AZ-861 (1,3-dimethyl-8-(4-(4-(3-(trifluoromethyl)phenyl)piperazin-1-yl)butyl)-1H-imidazo[2,1-f]purine-2,4(3H,8H)-dione) were synthesised in the Department of Medicinal Chemistry, Faculty of Pharmacy, Jagiellonian University, and their synthesis was described earlier. AZ-853 and AZ-861 were suspended in 1% aqueous solution of Tween 80, and WAY-100635 (Sigma, Germany) was dissolved in 0.9% saline. In acute experiments, the selected compounds AZ-853 (0.156–2.5 mg/kg) and AZ-861 (0.625–2.5 mg/kg) were injected i.p. once 60 min before tests, whereas WAY-100635 (0.3 mg/kg) was administered subcutaneously (s.c.) 45 min before the test. […] In chronic experiments, AZ-853 and AZ-861 were administered i.p. once a day (between 9:00 AM and 10:00 AM) for 16 consecutive days at the minimum active doses selected from FST experiment, i.e. 0.625 and 1.25 mg/kg, respectively. All compounds were administered to mice at a volume of 10 ml/kg and to rats at a volume of 2 ml/kg. The control groups received 1% aqueous solution of Tween 80.
# The experiment was carried out according to the method of Porsolt et al.. Swiss albino mice were individually placed in a glass cylinder (25 cm high; 10 cm in diameter) containing 10 cm of water maintained at 23–25°C, and were left there for 6 min. The total duration of immobility was recorded during the last 4 min of a 6-min. A mouse was regarded as immobile when it remained floating on the water, making only small movements to keep its head above it.
# as §1
# mice [4] = assay: Spontaneous activity monitoring (RFID TraffiCage, 18 h); type: in vivo, Swiss albino mice; settings: for Mean counts, spontaneous activity: 1.25 mg/kg
# Method: as §1
# The spontaneous activity of the mice was measured on the 1st and 15th day of the treatment with a special, innovative radiofrequency identification system (RFID-system)—TraffiCage (TSE-Systems, Germany). The test was conducted according to the method described in the literature. The animals had the transmitter (RFID) subcutaneously implanted, which tracked the time they spent in different areas of the cage. The data obtained were then grouped in a special computer program.
# PDE10A = system: PDE10A; parameters: method as in PMID 27353547; settings: in vitro, bioluminescent detection system; ref [8]; cited from earlier work
# [5] = biological target: T1, muscarinic M3 receptor (M3R) (Cavia porcellus, UniProt H0W1Z3); assay: Smooth muscle relaxant assay: carbachol-induced contraction of isolated guinea pig ileum; settings: isolated guinea pig small intestine, carbachol 100 μM
# T1 construct: from tissue; host or cells: isolated guinea pig ileum
# T1 sequence (H0W1Z3 1-590): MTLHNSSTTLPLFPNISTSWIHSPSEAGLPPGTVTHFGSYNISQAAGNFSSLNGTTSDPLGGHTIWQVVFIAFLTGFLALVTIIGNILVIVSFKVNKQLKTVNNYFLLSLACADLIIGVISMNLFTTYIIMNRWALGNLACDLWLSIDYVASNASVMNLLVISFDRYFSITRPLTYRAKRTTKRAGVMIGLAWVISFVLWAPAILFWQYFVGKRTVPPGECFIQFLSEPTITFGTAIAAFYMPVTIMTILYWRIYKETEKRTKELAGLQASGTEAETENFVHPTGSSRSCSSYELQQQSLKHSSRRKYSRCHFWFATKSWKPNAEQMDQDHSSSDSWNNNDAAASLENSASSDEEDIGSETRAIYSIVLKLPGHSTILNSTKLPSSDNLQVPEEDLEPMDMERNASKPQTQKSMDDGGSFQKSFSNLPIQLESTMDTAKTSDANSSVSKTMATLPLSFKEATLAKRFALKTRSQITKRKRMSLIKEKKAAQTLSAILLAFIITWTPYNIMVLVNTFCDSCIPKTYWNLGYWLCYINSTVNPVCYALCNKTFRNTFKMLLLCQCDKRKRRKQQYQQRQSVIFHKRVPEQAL
# Method: The experiment was carried out according to the method described previously. Male guinea pigs were sacrificed by cervical dislocation. The ileum was rapidly removed, rinsed, and cut into segments of 1.5–2.0 cm length. The tissues were mounted on a jacketed 20 mL organ bath (Tissue Organ Bath System; 750 TOBS, DMT, Denmark) filled with Krebs’s solution (NaCl 120 mM, KCl 5.6 mM, MgCl2 2.2 mM, CaCl2 2.4 mM, NaHCO3 19 mM, glucose 10 mM). The bath was aerated with 95 % O2/5 % CO2 and heated at 37°C. During the 60-min incubation period, the organ was rinsed 4 times with fresh Krebs’s buffer, and the tissues were also pre-stimulated by 60 mM KCl solution. The submaximal contraction induced by histamine (Sigma Aldrich) (2 μM) and carbachol (Sigma Aldrich) (100 μM) was evaluated in the presence and absence of the tested compounds. Amplitudes of contraction values were measured in 4 independent experiments.
# [6] = 18-h monitoring, AZ-853 0.625, AZ-861 1.25 mg/kg b.w./day
smiles,measurement,setting,value
"Cn1c(=O)c2c(nc3n(CCCCN4CCN(c5cccc(C(F)(F)F)c5)CC4)ccn23)n(C)c1=O [AZ-861, 1,3-dimethyl-8-(4-(4-(3-(trifluoromethyl)phenyl)piperazin-1-yl)butyl)-1H-imidazo[2,1-f]purine-2,4(3H,8H)-dione]",Ki,[1],0.2 nM
same,"effect on liver, kidney and heart weight (% of total body weight)",[2],neither AZ-853 (0.625 mg/kg) nor AZ-861 (1.25 mg/kg) influenced
same,reduction of immobility time in FST,"mice [3]; acute, 1.25 mg/kg i.p., 60 min before test",approximately 33%
same,effect of WAY-100635 on the antidepressant-like action of the compound in FST,mice [3]; compound 1.25 mg/kg i.p. + WAY-100635 0.3 mg/kg s.c.,attenuation of the anti-immobility effect
same,effect on immobility time in FST after repeated administration,"mice [3]; i.p. once daily for 13 consecutive days, AZ-853 0.625 mg/kg, AZ-861 1.25 mg/kg",decreased the immobility time
same,spontaneous activity after the 1st administration vs. control,mice [4]; [6],No effect on locomotor activity
same,spontaneous activity after the 15th administration vs. control,mice [4]; [6],significant decrease in spontaneous activity
same,"Mean counts, spontaneous activity","mice [4]; after 1st administration, 1 h after administration",223.1 counts
same,"Mean counts, spontaneous activity","mice [4]; after 1st administration, 2 h after administration",212.3 counts
same,"Mean counts, spontaneous activity","mice [4]; after 1st administration, 3 h after administration",190.0 counts
same,"Mean counts, spontaneous activity","mice [4]; after 1st administration, 4 h after administration",112.6 counts
same,"Mean counts, spontaneous activity","mice [4]; after 1st administration, 5 h after administration",125.9 counts
same,"Mean counts, spontaneous activity","mice [4]; after 1st administration, 6 h after administration",188.8 counts
same,"Mean counts, spontaneous activity","mice [4]; after 1st administration, 7 h after administration",229.5 counts
same,"Mean counts, spontaneous activity","mice [4]; after 1st administration, 8 h after administration",268.3 counts
same,"Mean counts, spontaneous activity","mice [4]; after 1st administration, 9 h after administration",274.6 counts
same,"Mean counts, spontaneous activity","mice [4]; after 1st administration, 10 h after administration",298.0 counts
same,"Mean counts, spontaneous activity","mice [4]; after 1st administration, 11 h after administration",311.6 counts
same,"Mean counts, spontaneous activity","mice [4]; after 1st administration, 12 h after administration",274.9 counts
same,"Mean counts, spontaneous activity","mice [4]; after 1st administration, 13 h after administration",290.8 counts
same,"Mean counts, spontaneous activity","mice [4]; after 1st administration, 14 h after administration",267.1 counts
same,"Mean counts, spontaneous activity","mice [4]; after 1st administration, 15 h after administration",232.3 counts
same,"Mean counts, spontaneous activity","mice [4]; after 1st administration, 16 h after administration",255.3 counts
same,"Mean counts, spontaneous activity","mice [4]; after 1st administration, 17 h after administration",318.8 counts
same,"Mean counts, spontaneous activity","mice [4]; after 1st administration, 18 h after administration",275.9 counts
same,"Mean counts, spontaneous activity","mice [4]; after 15th administration, 1 h after administration",228.5 counts
same,"Mean counts, spontaneous activity","mice [4]; after 15th administration, 2 h after administration",121.0 counts
same,"Mean counts, spontaneous activity","mice [4]; after 15th administration, 3 h after administration",91.6 counts
same,"Mean counts, spontaneous activity","mice [4]; after 15th administration, 4 h after administration",149.1 counts
same,"Mean counts, spontaneous activity","mice [4]; after 15th administration, 5 h after administration",154.4 counts
same,"Mean counts, spontaneous activity","mice [4]; after 15th administration, 6 h after administration",159.0 counts
same,"Mean counts, spontaneous activity","mice [4]; after 15th administration, 7 h after administration",185.0 counts
same,"Mean counts, spontaneous activity","mice [4]; after 15th administration, 8 h after administration",140.4 counts
same,"Mean counts, spontaneous activity","mice [4]; after 15th administration, 9 h after administration",144.0 counts
same,"Mean counts, spontaneous activity","mice [4]; after 15th administration, 10 h after administration",195.7 counts
same,"Mean counts, spontaneous activity","mice [4]; after 15th administration, 11 h after administration",177.3 counts
same,"Mean counts, spontaneous activity","mice [4]; after 15th administration, 12 h after administration",236.1 counts
same,"Mean counts, spontaneous activity","mice [4]; after 15th administration, 13 h after administration",169.1 counts
same,"Mean counts, spontaneous activity","mice [4]; after 15th administration, 14 h after administration",242.3 counts
same,"Mean counts, spontaneous activity","mice [4]; after 15th administration, 15 h after administration",172.6 counts
same,"Mean counts, spontaneous activity","mice [4]; after 15th administration, 16 h after administration",218.9 counts
same,"Mean counts, spontaneous activity","mice [4]; after 15th administration, 17 h after administration",210.1 counts
same,"Mean counts, spontaneous activity","mice [4]; after 15th administration, 18 h after administration",244.6 counts
same,PDE10A inhibitory activity,PDE10A,did not induce PDE4B and PDE10A inhibitory activity
same,inhibition at 1 µM,[5],0.17%
